Assay results taken from patent US9221834B2 (Merck Sharp & Dohme Corp., priority 2010, dated 2015).

Target: T1, recombinant CETP (rCETP) (Homo sapiens, UniProt P11597)
T1 sequence (P11597 18-493): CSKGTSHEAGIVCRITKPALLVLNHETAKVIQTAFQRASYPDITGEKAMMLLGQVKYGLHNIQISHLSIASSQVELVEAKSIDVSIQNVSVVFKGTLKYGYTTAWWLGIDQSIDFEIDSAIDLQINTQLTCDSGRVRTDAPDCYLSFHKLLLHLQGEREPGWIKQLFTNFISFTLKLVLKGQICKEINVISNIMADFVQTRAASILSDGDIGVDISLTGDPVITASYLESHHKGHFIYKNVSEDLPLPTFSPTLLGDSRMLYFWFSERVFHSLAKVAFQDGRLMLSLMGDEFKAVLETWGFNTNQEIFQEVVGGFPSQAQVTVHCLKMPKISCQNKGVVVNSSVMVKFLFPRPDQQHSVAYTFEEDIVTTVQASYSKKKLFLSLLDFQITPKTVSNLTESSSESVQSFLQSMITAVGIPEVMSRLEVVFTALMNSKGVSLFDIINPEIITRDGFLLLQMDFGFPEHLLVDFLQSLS
Assay: RTA assay using recombinant CETP (2% RTA)
Format: biochemical
Settings: RTA assay in 2% human serum; read-out: IC50
Outline: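 Compounds preincubated 1 h at 37 °C with assay cocktail (CETP buffer: 50 mM Tris pH 7.4, 100 mM NaCl, 1 mM EDTA; human HDL acceptor); transfer started with [3H]cholesteryl oleate- or [3H]triolein-labelled LDL, 60 min at 37 °C. LDL PEG-precipitated; supernatant counted by scintillation, blank-corrected; IC50 from 4-parameter sigmoidal fit of % inhibition vs DMSO control.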

| SMILES | IC50 [nM] |
| --- | --- |
| COc1cc2c(cc1-c1ccc(N3CCC3)nc1CN1C(=O)O[C@H](c3cc(C)cc(C)c3)[C@@H]1C)[C@H](CC(=O)O)CC2 [Example 230] | 95 |
| COc1cc(F)c(-c2ccc(C(=O)O)cc2C)cc1-c1cnc(N2CC(F)C2)nc1CN1C(=O)O[C@H](c2cc(C(F)(F)F)cc(C(F)(F)F)c2)[C@@H]1C [Example 152, 5′-[4-({(4S,5R)-5-[3,5-bis(trifluoromethyl)phenyl]-4-methyl-2-oxo-1,3-oxazolidin-3-yl}methyl)-2-(3-fluoroazetidin-1-yl)pyrimidin-5-yl]-2′-fluoro-4′-methoxy-2-methylbiphen-4-carboxylic acid] | 10 |
| COC(=O)c1cc(-c2ccc(OC)c(-c3ccc(N4CCC4)nc3CN3C(=O)O[C@H](c4cc(C(F)(F)F)cc(C(F)(F)F)c4)[C@@H]3C)c2)cs1 [Example 49] | 98 |
| COc1ccc(-c2nn(C)c(C(=O)O)c2C)cc1-c1ccc(N2CCC2)nc1CN1C(=O)O[C@H](c2cc(C(F)(F)F)cc(C(F)(F)F)c2)[C@@H]1C [Example 94] | 12 |
| C[C@H]1[C@@H](c2cc(C(F)(F)F)cc(C(F)(F)F)c2)OC(=O)N1Cc1nc(N2CCC2)ncc1-c1cc(CCC(=O)O)ccc1Cl [Example 280] | 23 |
| COc1cc(F)c(-c2cnc(C(=O)O)cc2C)cc1-c1cnc(N2CC(F)(F)C2)nc1CN1C(=O)O[C@H](c2cc(C(F)(F)F)cc(C(F)(F)F)c2)[C@@H]1C [Example 183] | 14 |
| COC(=O)c1ccc(-c2ccc(OC)c(-c3ccc(N4CCC4)nc3CN3C(=O)O[C@H](c4cc(C(F)(F)F)cc(C(F)(F)F)c4)[C@@H]3C)c2)cn1 [Example 58] | 29 |
| COc1ccc([C@H]2C[C@@H](C(=O)O)C2)cc1-c1c(C)cc(N2CCC2)nc1CN1C(=O)O[C@H](c2cc(C(F)(F)F)cc(C(F)(F)F)c2)[C@@H]1C [Example 96] | 8 |
| COC(=O)c1c(C)c(-c2ccc(OC)c(-c3ccc(N4CCC4)nc3CN3C(=O)O[C@H](c4cc(C(F)(F)F)cc(C(F)(F)F)c4)[C@@H]3C)c2)nn1C [Example 29] | 14 |
| CCOC(=O)[C@@H]1C[C@H]1c1ccc(OC)c(-c2ccc(N3CCC3)nc2CN2C(=O)O[C@H](c3cc(F)cc(F)c3)[C@@H]2C)c1 [Example 16] | 94 |
| CCOC(=O)[C@@H]1C[C@H]1c1ccc(OC)c(-c2ccc(N3CCC3)nc2CN2C(=O)O[C@H](c3cccc(C)c3)[C@@H]2C)c1 [Example 209] | 99 |
| CCc1ccc(-c2ccc(C(=O)OC)cc2C)cc1-c1cnc(N2CC(F)(F)C2)nc1CN1C(=O)O[C@H](c2cc(C(F)(F)F)cc(C(F)(F)F)c2)[C@@H]1C [Example 133] | 39 |
| COc1ccc(-c2ccc(C(=O)O)cc2C)cc1-c1ccc(N2CCC2)nc1CN1C(=O)O[C@H](c2cccc(C)c2)[C@@H]1C [Example 237] | 10 |
| COc1ccc(CCC(=O)O)cc1-c1c(C)cc(N2CC(F)(F)C2)nc1CN1C(=O)O[C@H](c2cc(C(F)(F)F)cc(C(F)(F)F)c2)[C@@H]1C [Example 63] | 5 |
| COc1ccc(Cc2nn[nH]n2)cc1-c1ccc(N2CCC2)nc1CN1C(=O)O[C@H](c2cc(C(F)(F)F)cc(C(F)(F)F)c2)[C@@H]1C [Example 266, (4S,5R)-3-({6-azetidin-1-yl-3-[2-methoxy-5-(2H-tetrazol-5-ylmethyl)phenyl]pyridin-2-yl}methyl)-5-[3,5-bis(trifluoromethyl)phenyl]-4-methyl-1,3-oxazolidin-2-one] | 79 |
| COc1ccc(CCC(=O)O)cc1-c1ccc(N2CCC2)nc1CN1C(=O)O[C@H](c2cccc(C)c2)[C@@H]1C [Example 223] | 289 |
| COc1ccc(-c2sc(C(=O)O)c(C)c2C)cc1-c1ccc(N2CCC2)nc1CN1C(=O)O[C@H](c2cc(C(F)(F)F)cc(C(F)(F)F)c2)[C@@H]1C [Example 111] | 5 |
| COc1ccc(-c2ccc(C(=O)O)cc2C)cc1-c1ccc(N2CCC2)nc1CN1C(=O)O[C@H](c2cc(C(F)(F)F)cc(C(F)(F)F)c2)[C@@H]1C [Example 289] | 7 |
| CCOC(=O)[C@H]1C[C@@H]1c1ccc(OC)c(-c2ccc(N3CCC3)nc2CN2C(=O)O[C@H](c3cc(C(F)(F)F)cc(C(F)(F)F)c3)[C@@H]2C)c1 [Example 4] | 6 |
| COc1ccc([C@H]2C[C@@H](C(=O)O)C2)cc1-c1ccc(N2CCC2)nc1CN1C(=O)O[C@H](c2cc(C(F)(F)F)cc(C(F)(F)F)c2)[C@@H]1C [Example 89] | 29 |
| COc1ccc([C@H]2C[C@@H]2C(=O)O)cc1-c1ccc(N2CCC2)nc1CN1C(=O)O[C@H](c2cc(F)cc(F)c2)[C@@H]1C [Example 84] | 73 |
| COc1ccc(CCC(=O)O)cc1-c1cnc(N2CCC2)nc1CN1C(=O)O[C@H](c2cc(C(F)(F)F)cc(C(F)(F)F)c2)[C@@H]1C [Example 171] | 60 |
| COc1ccc(-c2csc(C(=O)O)c2OC)cc1-c1ccc(N2CCC2)nc1CN1C(=O)O[C@H](c2cc(C(F)(F)F)cc(C(F)(F)F)c2)[C@@H]1C [Example 110] | 44 |
| CCOC(=O)CCc1ccc(OC)c(-c2ccc(N3CCC3)nc2CN2C(=O)O[C@H](c3cccc(C(F)(F)F)c3)[C@@H]2C)c1 [Example 197] | 59 |
| COc1ccc(CCC(=O)O)cc1-c1ccc(N2CC(F)(F)C2)nc1CN1C(=O)O[C@H](c2cc(C(F)(F)F)cc(C(F)(F)F)c2)[C@@H]1C [Example 64] | 13 |
| COc1ccc(-c2ccc(C(=O)O)o2)cc1-c1ccc(N2CCC2)nc1CN1C(=O)O[C@H](c2cc(C(F)(F)F)cc(C(F)(F)F)c2)[C@@H]1C [Example 112] | 184 |
| CCOC(=O)[C@@H]1CC1c1ccc(OC)c(-c2cnc(N3CC(F)(F)C3)nc2CN2C(=O)O[C@H](c3cc(C(F)(F)F)cc(C(F)(F)F)c3)[C@@H]2C)c1 (stereo partly drawn) [Example 129] | 18 |
| COC(=O)CC(C)(C)c1ccc(OC)c(-c2ccc(N3CCC3)nc2CN2C(=O)O[C@H](c3cc(F)cc(F)c3)[C@@H]2C)c1 [Example 15] | 159 |
| COC(=O)CC(C)(C)c1ccc(OC)c(-c2ccc(N3CCC3)nc2CN2C(=O)O[C@H](c3ccc(F)c(F)c3)[C@@H]2C)c1 [Example 12] | 227 |
| COc1ccc([C@@H]2C[C@H]2C(=O)O)cc1-c1ccc(N2CCC2)nc1CN1C(=O)O[C@H](c2cc(C)cc(C)c2)[C@@H]1C [Example 233] | 38 |

Test system: not given
Assay: not given
Settings: patients treated with anacetrapib; cited from earlier work

| SMILES | increase in mortality |
| --- | --- |
| COc1cc(F)c(C(C)C)cc1-c1ccc(C(F)(F)F)cc1CN1C(=O)O[C@H](c2cc(C(F)(F)F)cc(C(F)(F)F)c2)[C@@H]1C [anacetrapib] | unlikely |

Same assay, conditions: patients, with baseline statin therapy, compared with just a statin; cited from earlier work

| SMILES | decrease of LDL-C [%] | increase of HDL-C [%] |
| --- | --- | --- |
| COc1cc(F)c(C(C)C)cc1-c1ccc(C(F)(F)F)cc1CN1C(=O)O[C@H](c2cc(C(F)(F)F)cc(C(F)(F)F)c2)[C@@H]1C [anacetrapib] | 40 | 138 |
